US20230146455A1, “TREATMENT OF INFLAMMATORY DISEASES WITH PEPTIDES AND PHARMACEUTICAL COMPOSITIONS” (Yuyu Pharma, Inc., priority 2020, published 2023)
Where “and” joins values, the source holds several entries; their conditions need not be identical. Equal entries are not always repeated. Where a SMILES comes first, the peptide text is derived from it. [ ]: non-standard residue; d: D form. Hyp = O=C(O)[C@@H]1C[C@@H](O)CN1

Legend:
CCL5/RANTES = experiment: Example 9 Luminex, LPS hPBMCs: CCL5/RANTES; assay type: cell-based, human; settings: PBMC + LPS(5 ug/ml)
Experimental: (§1) Treatment Human PBMCs were pretreated with YY-101, YDE-011 and YDE-043 or reference compound; Xiidra® at various concentration (ranging from 1 nM to 100 uM) for 2 h before stimulation. An equal volume of 0.5% DMSO was used as a vehicle control. Then, the cells were treated with LPS at 5 ug/ml. The supernatants from treated cells were harvested at 24 h and placed in a 96 well for Luminex cytokine & chemokine profiling using a Luminex 200 multiplex assay (Luminex; R&D system, USA).
(§2) The main study arm with triplicate wells per group in a 24-well plate: • 1. Blank • 2. PBMC: 0.5% DMSO • 3. PBMC+LPS (5 ug/ml) • 4. PBMC+YY-101 100 uM • 5. PBMC+YY-101 10 uM • 6. PBMC+YY-101 1 uM • 7. PBMC+YY-101 0.1 uM • 8. PBMC+YY-101 0.01 uM • 9. PBMC+LPS (5 ug/ml)+Xiidra®100 uM • 10. PBMC+LPS (5 ug/ml)+Xiidra® 10 uM • 11. PBMC+LPS (5 ug/ml)+Xiidra® 1 uM • 12. PBMC+LPS (5 ug/ml)+Xiidra®0.1 uM • 13. PBMC+LPS (5 ug/ml)+Xiidra®0.01 uM • 14. PBMC+LPS (5 ug/ml)+Xiidra®0.001 uM • 15. PBMC+LPS (5 ug/ml)+YY-101 100 uM • 16. PBMC+LPS (5 ug/ml)+YY-101 10 uM • 17. PBMC+LPS (5 ug/ml)+YY-101 1 uM • 18. PBMC+LPS (5 ug/ml)+YY-101 0.1 uM • 19. PBMC+LPS (5 ug/ml)+YY-101 0.01 uM • 20. PBMC+LPS (5 ug/ml)+YY-101 0.001 uM • 21. PBMC+LPS (5 ug/ml)+YDE-011 100 uM • 22. PBMC+LPS (5 ug/ml)+YDE-011 10 uM • 23. PBMC+LPS (5 ug/ml)+YDE-011 1 uM • 24. PBMC+LPS (5 ug/ml)+YDE-011 0.1 uM • 25. PBMC+LPS (5 ug/ml)+YDE-011 0.01 uM • 26. PBMC+LPS (5 ug/ml)+YDE-011 0.001 uM • 27. PBMC+LPS (5 ug/ml)+YDE-043 100 uM • 28. PBMC+LPS (5 ug/ml)+YDE-043 10 uM • 29. PBMC+LPS (5 ug/ml)+YDE-043 1 uM • 30. PBMC+LPS (5 ug/ml)+YDE-043 0.1 uM • 31. PBMC+LPS (5 ug/ml)+YDE-043 0.01 uM • 32. PBMC+LPS (5 ug/ml)+YDE-043 0.001 uM
(§3) Multiplex assay was used to measure 30 cytokines and chemokines. The 1:2, 1:10 and 1:200 diluted cell supernatant and serial dilution of the standard were dispensed into a 96 well plate at 50 ul/well. Then, the pre-mixed cocktail of antibody-coated magnetic beads was dispensed at 50 ul/well and incubated at room temperature for 2 h in a horizontal orbital microplate shaker at 800±500 rpm. The beads were washed using a magnetic device to prevent loss. The biotin-antibody was dispensed in 50 ul of each well and incubated at room temperature for 1 h in a shaker at 800±500 rpm. After washing, streptavidin-PE was added at 50 ul/well and incubated at room temperature for 30 min in a shaker under the same conditions. Finally, after washing, wash buffer (100 ul/well) was added to the plate and incubated in a shaker for 2 min. The Luminex™ 200 setting were set according to the manufacturer's protocol. The data was calculated with a standard five-parameter logistic nonlinear regression analysis of the data (xPonent software 4.2, USA). The levels of cytokine/chemokine are normalized to the live cell counts (1×10^5 cells/mL) and presented as concentrations per mL (pg/mL or ng/mL).

IL-10 = experiment: Example 9 Luminex, LPS hPBMCs: IL-10; assay type: cell-based, human; settings: IL-10
Experimental: as §1, §2, §3

[1] = test article 0.001 uM, single replicates (1st, 2nd, 3rd)
[2] = test article 0.01 uM, single replicates (1st, 2nd, 3rd)
[3] = test article 0.1 uM, single replicates (1st, 2nd, 3rd)
[4] = test article 1 uM, single replicates (1st, 2nd, 3rd)
[5] = test article 10 uM, single replicates (1st, 2nd, 3rd)
[6] = test article 100 uM, single replicates (1st, 2nd, 3rd)
[7] = PBMC + LPS(5 ug/ml) + test article 0.001 uM, Mean
[8] = PBMC + LPS(5 ug/ml) + test article 0.001 uM, single replicates
[9] = PBMC + LPS(5 ug/ml) + test article 0.01 uM, Mean
[10] = PBMC + LPS(5 ug/ml) + test article 0.01 uM, single replicates
[11] = PBMC + LPS(5 ug/ml) + test article 0.1 uM, Mean
[12] = PBMC + LPS(5 ug/ml) + test article 0.1 uM, single replicates
[13] = PBMC + LPS(5 ug/ml) + test article 1 uM, Mean
[14] = PBMC + LPS(5 ug/ml) + test article 1 uM, single replicates
[15] = PBMC + LPS(5 ug/ml) + test article 10 uM, Mean
[16] = PBMC + LPS(5 ug/ml) + test article 10 uM, single replicates
[17] = PBMC + LPS(5 ug/ml) + test article 100 uM, Mean
[18] = PBMC + LPS(5 ug/ml) + test article 100 uM, single replicates

SMILES: CC(C)C[C@H](NC(=O)[C@H](CCC(N)=O)NC(=O)CNC(=O)[C@@H]1C[C@@H](O)CN1)C(=O)NCC(=O)O [YDE-043] (H-[Hyp]GQLG-OH; N-terminus and C-terminus assumed)
- Concentration (CCL5/RANTES) (CCL5/RANTES; test article 0.001 uM, Mean): 207.1 pg/mL
- MFI (Bead name: CCL5/RANTES) (CCL5/RANTES; test article 0.001 uM, Mean): 469.3
- conc/live cell (CCL5/RANTES) (CCL5/RANTES; test article 0.001 uM, Mean): 42.0 pg/10^5
- Concentration (CCL5/RANTES) (CCL5/RANTES; [1]): 199.1 pg/mL and 216.5 pg/mL and 205.7 pg/mL
- MFI (Bead name: CCL5/RANTES) (CCL5/RANTES; [1]): 445.5 and 497.5 and 465.0
- conc/live cell (CCL5/RANTES) (CCL5/RANTES; [1]): 45.3 pg/10^5 and 36.1 pg/10^5 and 44.7 pg/10^5
- Concentration (CCL5/RANTES) (CCL5/RANTES; test article 0.01 uM, Mean): 214.6 pg/mL
- MFI (Bead name: CCL5/RANTES) (CCL5/RANTES; test article 0.01 uM, Mean): 491.8
- conc/live cell (CCL5/RANTES) (CCL5/RANTES; test article 0.01 uM, Mean): 41.1 pg/10^5
- Concentration (CCL5/RANTES) (CCL5/RANTES; [2]): 219.3 pg/mL and 212.9 pg/mL and 211.7 pg/mL
- MFI (Bead name: CCL5/RANTES) (CCL5/RANTES; [2]): 506.0 and 486.5 and 483.0
- conc/live cell (CCL5/RANTES) (CCL5/RANTES; [2]): 48.7 pg/10^5 and 32.3 pg/10^5 and 42.3 pg/10^5
- Concentration (CCL5/RANTES) (CCL5/RANTES; test article 0.1 uM, Mean): 215.9 pg/mL
- MFI (Bead name: CCL5/RANTES) (CCL5/RANTES; test article 0.1 uM, Mean): 495.8
- conc/live cell (CCL5/RANTES) (CCL5/RANTES; test article 0.1 uM, Mean): 40.1 pg/10^5
- Concentration (CCL5/RANTES) (CCL5/RANTES; [3]): 220.2 pg/mL and 200.1 pg/mL and 227.4 pg/mL
- MFI (Bead name: CCL5/RANTES) (CCL5/RANTES; [3]): 508.5 and 448.5 and 530.5
- conc/live cell (CCL5/RANTES) (CCL5/RANTES; [3]): 44.0 pg/10^5 and 35.7 pg/10^5 and 40.6 pg/10^5
- Concentration (CCL5/RANTES) (CCL5/RANTES; test article 1 uM, Mean): 214.4 pg/mL
- MFI (Bead name: CCL5/RANTES) (CCL5/RANTES; test article 1 uM, Mean): 491.2
- conc/live cell (CCL5/RANTES) (CCL5/RANTES; test article 1 uM, Mean): 40.7 pg/10^5
- Concentration (CCL5/RANTES) (CCL5/RANTES; [4]): 218.2 pg/mL and 212.9 pg/mL and 212.2 pg/mL
- MFI (Bead name: CCL5/RANTES) (CCL5/RANTES; [4]): 502.5 and 486.5 and 484.5
- conc/live cell (CCL5/RANTES) (CCL5/RANTES; [4]): 37.6 pg/10^5 and 44.3 pg/10^5 and 40.0 pg/10^5
- Concentration (CCL5/RANTES) (CCL5/RANTES; test article 10 uM, Mean): 202.8 pg/mL
- MFI (Bead name: CCL5/RANTES) (CCL5/RANTES; test article 10 uM, Mean): 456.5
- conc/live cell (CCL5/RANTES) (CCL5/RANTES; test article 10 uM, Mean): 37.6 pg/10^5
- Concentration (CCL5/RANTES) (CCL5/RANTES; [5]): 212.9 pg/mL and 193.7 pg/mL and 201.8 pg/mL
- MFI (Bead name: CCL5/RANTES) (CCL5/RANTES; [5]): 486.5 and 429.5 and 453.5
- conc/live cell (CCL5/RANTES) (CCL5/RANTES; [5]): 40.9 pg/10^5 and 35.9 pg/10^5 and 36.0 pg/10^5
- Concentration (CCL5/RANTES) (CCL5/RANTES; test article 100 uM, Mean): 163.0 pg/mL
- MFI (Bead name: CCL5/RANTES) (CCL5/RANTES; test article 100 uM, Mean): 341.8
- conc/live cell (CCL5/RANTES) (CCL5/RANTES; test article 100 uM, Mean): 25.9 pg/10^5
- Concentration (CCL5/RANTES) (CCL5/RANTES; [6]): 167.0 pg/mL and 159.0 pg/mL
- MFI (Bead name: CCL5/RANTES) (CCL5/RANTES; [6]): 353.0 and 330.5
- conc/live cell (CCL5/RANTES) (CCL5/RANTES; [6]): 26.9 pg/10^5 and 24.8 pg/10^5
- Concentration (IL-10; [7]): 305.6 pg/mL
- conc/live cell (pg/10^5) (IL-10; [7]): 62.5 pg/10^5
- Concentration (IL-10; [8]): 335.7 pg/mL and 298.3 pg/mL and 282.9 pg/mL
- conc/live cell (pg/10^5) (IL-10; [8]): 76.3 pg/10^5 and 49.7 pg/10^5 and 61.5 pg/10^5
- Concentration (IL-10; [9]): 344.9 pg/mL
- conc/live cell (pg/10^5) (IL-10; [9]): 65.7 pg/10^5
- Concentration (IL-10; [10]): 344.9 pg/mL and 362.6 pg/mL and 327.1 pg/mL
- conc/live cell (pg/10^5) (IL-10; [10]): 76.7 pg/10^5 and 54.9 pg/10^5 and 65.4 pg/10^5
- Concentration (IL-10; [11]): 322.4 pg/mL
- conc/live cell (pg/10^5) (IL-10; [11]): 59.9 pg/10^5
- Concentration (IL-10; [12]): 330.0 pg/mL and 312.8 pg/mL and 324.3 pg/mL
- conc/live cell (pg/10^5) (IL-10; [12]): 66.0 pg/10^5 and 55.9 pg/10^5 and 57.9 pg/10^5
- Concentration (IL-10; [13]): 327.6 pg/mL
- conc/live cell (pg/10^5) (IL-10; [13]): 62.1 pg/10^5
- Concentration (IL-10; [14]): 328.6 pg/mL and 312.8 pg/mL and 341.4 pg/mL
- conc/live cell (pg/10^5) (IL-10; [14]): 56.7 pg/10^5 and 65.2 pg/10^5 and 64.4 pg/10^5
- Concentration (IL-10; [15]): 297.7 pg/mL
- conc/live cell (pg/10^5) (IL-10; [15]): 55.2 pg/10^5
- Concentration (IL-10; [16]): 318.5 pg/mL and 277.0 pg/mL and 297.5 pg/mL
- conc/live cell (pg/10^5) (IL-10; [16]): 61.3 pg/10^5 and 51.3 pg/10^5 and 53.1 pg/10^5
- Concentration (IL-10; [17]): 109.4 pg/mL
- conc/live cell (pg/10^5) (IL-10; [17]): 17.4 pg/10^5
- Concentration (IL-10; [18]): 106.7 pg/mL and 112.1 pg/mL
- conc/live cell (pg/10^5) (IL-10; [18]): 17.2 pg/10^5 and 17.5 pg/10^5
